Laboratory results reported in patent US8232269B2, “Amide compounds useful in therapy” (Pfizer Inc., priority 2008, dated 2012).
Counter-ions that a name gives are not always drawn.

Biological target: T1, Progesterone Receptor (PR) (Homo sapiens, UniProt P06401)
T1 construct: endogenous in cells; host or cells: T47D human breast mammary carcinoma cells
T1 sequence (P06401 1-933): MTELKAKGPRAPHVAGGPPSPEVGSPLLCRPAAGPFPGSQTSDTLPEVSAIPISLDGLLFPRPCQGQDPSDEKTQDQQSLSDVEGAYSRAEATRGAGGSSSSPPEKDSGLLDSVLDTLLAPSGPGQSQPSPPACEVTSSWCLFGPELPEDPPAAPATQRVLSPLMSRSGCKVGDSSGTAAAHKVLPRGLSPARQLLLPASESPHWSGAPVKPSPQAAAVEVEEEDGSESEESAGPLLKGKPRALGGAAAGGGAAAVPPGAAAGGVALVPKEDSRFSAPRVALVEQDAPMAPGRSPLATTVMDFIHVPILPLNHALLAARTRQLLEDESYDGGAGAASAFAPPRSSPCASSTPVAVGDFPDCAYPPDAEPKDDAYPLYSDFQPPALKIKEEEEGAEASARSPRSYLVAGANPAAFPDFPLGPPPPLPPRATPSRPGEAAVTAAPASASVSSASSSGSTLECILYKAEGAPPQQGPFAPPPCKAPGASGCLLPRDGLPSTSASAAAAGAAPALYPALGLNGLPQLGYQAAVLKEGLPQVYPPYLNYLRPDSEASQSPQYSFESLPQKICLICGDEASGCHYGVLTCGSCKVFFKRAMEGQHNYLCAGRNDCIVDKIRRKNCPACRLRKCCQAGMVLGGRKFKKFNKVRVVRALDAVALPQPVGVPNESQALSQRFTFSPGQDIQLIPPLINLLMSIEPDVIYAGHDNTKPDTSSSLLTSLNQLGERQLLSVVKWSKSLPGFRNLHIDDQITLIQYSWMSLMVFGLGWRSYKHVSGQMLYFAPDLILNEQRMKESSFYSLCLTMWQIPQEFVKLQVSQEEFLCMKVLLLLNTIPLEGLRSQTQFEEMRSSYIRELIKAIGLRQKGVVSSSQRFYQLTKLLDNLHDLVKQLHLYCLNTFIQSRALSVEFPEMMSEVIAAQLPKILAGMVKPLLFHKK
Assay: In vitro functional assay for progesterone receptor (PR) antagonists: inhibition of progesterone-induced alkaline phosphatase expression in T47D cells
Type: cell-based
Conditions: antagonist format, 5 nM progesterone, Ki calculated from IC50 with the Cheng-Prusoff equation
Description: 1.0 In vitro Functional Assay for Progesterone Receptor (PR) Antagonists, Agonists and Modulators
The assay for PR antagonism takes advantage of the extensively reported modulation of alkaline phosphatase (AP) expression in human breast T47D mammary carcinoma cells {Beck et al., D. P. (1993). The progesterone antagonist RU486 acquires agonist activity upon stimulation of cAMP signalling pathways. Proc Natl Acad Sci USA 90, 4441-4445; Fensome et al. (2002). New progesterone receptor antagonists: 3,3-disubstituted-5-aryloxindoles. Bioorg Med Chem Lett 12, 3487-3490; Zhang et al., (2002a). 6-Aryl-1,4-dihydro-benzo d1,3oxazin-2-ones: a novel class of potent, selective, and orally active nonsteroidal progesterone receptor antagonists. Journal of Medicinal Chemistry 45, 4379-4382; Zhang et al., (2003). Novel 6-aryl-1,4-dihydrobenzo d oxazine-2-thiones as potent, selective, and orally active nonsteroidal progesterone receptor agonists. Bioorganic & Medicinal Chemistry Letters 13, 1313-1316; Zhang et al., (2002b). Potent nonsteroidal progesterone receptor agonists: synthesis and SAR study of 6-aryl benzoxazines. Bioorganic & Medicinal Chemistry Letters 12, 787-790; Zhang, Z. et al., (2000). In vitro characterization of trimegestone: a new potent and selective progestin. Steroids 65, 637-643}. […] In the absence of progesterone any agonist activity is also observed as an induction of AP activity. By running the assay in two formats (+/−progesterone (P4)), compounds behaving as PR antagonists, agonists, partial agonists or modulators with mixed agonist/antagonist activity can be identified.
Briefly, T47D cells are grown by propagating in DMEM with phenol red+10% FCS+2 mM Glutamine at 37° C./5% CO2. At 70-80% confluence, the media is exchanged for phenol red free DMEM+5% CS-FCS (Assay media). Cells are incubated overnight in assay media then harvested and frozen in assay media containing 10% DMSO at 1.5e7 cells/mL in 2 mL aliquots using a Planer and immediately stored in liquid nitrogen. Vials are removed from liquid nitrogen storage and immediately thawed in a water bath at 37° C. The cell suspension is added dropwise to 20 mL of assay media, then the tube centrifuged at 1000 rpm for 4 minutes, the supernatant is discarded and the pellet re-suspended in 20 mL assay media. T47D cells are then plated at 8750 cells/well in 35 μL assay media in sufficient white solid 384 well TC plates for the assay. For the agonist format assay a further 10 μL of assay media is added to each well. These plates are then cultured for 3-6 hours at 37° C./5% CO2 before compound addition.
Test substances are prepared by in 100% DMSO, half log concentrations from 4 mM in 384 well plates 5 μL/well (referred to here as ‘grandmother plates’). Progesterone is 100 μM made up in ethanol and PBS (i.e. add 1 mL ethanol to progesterone initially to help dissolving) and stored in 0.5-1 mL aliquots at −20° C.
Using a multidrop (Thermolabsystems), 60 μL/well of buffer is added to a 384 well plate—this will be the ‘mother plate’. _Add 45 μL well buffer to grandmother plate using the multidrop (=400 μM 10% DMSO dilution). Mixed and spun to remove air bubbles. • 20 μL is taken from the grandmother plate (400 μM 10% DMSO) and added to the mother plate (=100 μM 2.5% DMSO). Mixed and spun to remove air bubbles Preparation of Max/Min:
Antagonist Min: (Checker Pattern on Plate Map) 1 μM RU-486 (FAC 0.1 μM) • 50 μL of 0.2 mM RU-486 • 10 mL Diluent Addition of Test Substance to Cell Plates • The PlateMate Plus was used to add 5 μL MAX/MIN to cell plates • Then 5 μL test substances are added from the mother plate (after removing max/min PlateMate tips: columns 1 and 24)
Addition of Agonist (5 nM Progesterone FAC) for Antagonist Format Only
25 nM progesterone in assay media is prepared from 100 μM stock (12.5 μL progesterone/50 mL media), from which 10 μL per well is transferred to the assay plate using the PlateMate Plus (already containing cells & compound). […]

Structure (SMILES)	Ki [nM]
Cc1c(-c2ccc(C#N)cc2)nn(C2CCOC2)c1C(=O)NC(C)C (single isomer, unassigned) [Example 77 Ent 1, 3-(4-Cyanophenyl)-N-isopropyl-4-methyl-1-(tetrahydrofuran-3-yl)-1H-pyrazole-5-carboxamide]	69.5
Cc1c(-c2ccc(C#N)cc2)nn(C2CCOC2)c1C(=O)NC(C)C (single isomer, unassigned) [Example 77 Ent 2, 3-(4-Cyanophenyl)-N-isopropyl-4-methyl-1-(tetrahydrofuran-3-yl)-1H-pyrazole-5-carboxamide]	102
Cc1c(-c2ccc(C#N)cc2)nn(C2CCOC2)c1C(=O)NC[C@H](C)O (single isomer, unassigned) [Example 78 Diast 1]	> 242
Cc1c(-c2ccc(C#N)cc2)nn(C2CCOC2)c1C(=O)NC[C@H](C)O (single isomer, unassigned) [Example 78 Diast 2]	49.4
Cc1c(-c2ccc(C#N)cc2)nn(C2CCOC2)c1C(=O)NC[C@@H](C)O (single isomer, unassigned) [Example 79 Diast 1]	> 766
Cc1c(-c2ccc(C#N)cc2)nn(C2CCOC2)c1C(=O)NC[C@@H](C)O (single isomer, unassigned) [Example 79 Diast 2]	163
Cc1c(-c2ccc(C#N)cc2)nn(C2CCOC2)c1C(=O)NCC(C)(C)O (single isomer, unassigned) [Example 80 Ent 1, 3-(4-Cyanophenyl)-N-(2-hydroxy-2-methylpropyl)-4-methyl-1-(tetrahydrofuran-3-yl)-1H-pyrazole-5-carboxamide]	57.1
Cc1c(-c2ccc(C#N)cc2)nn(C2CCOC2)c1C(=O)NCC(C)(C)O (single isomer, unassigned) [Example 80 Ent 2, 3-(4-Cyanophenyl)-N-(2-hydroxy-2-methylpropyl)-4-methyl-1-(tetrahydrofuran-3-yl)-1H-pyrazole-5-carboxamide]	> 733
CCc1c(-c2ccc(C#N)cc2)nn(C(C)CC)c1C(=O)NCC(C)(C)O (single isomer, unassigned) [Example 106 Ent 1, 1-sec-Butyl-3-(4-cyanophenyl)-4-ethyl-N-(2-hydroxy-2-methylpropyl)-1H-pyrazole-5-carboxamide]	14.8
CCc1c(-c2ccc(C#N)cc2)nn(C(C)CC)c1C(=O)NCC(C)(C)O (single isomer, unassigned) [Example 106 Ent 2, 1-sec-Butyl-3-(4-cyanophenyl)-4-ethyl-N-(2-hydroxy-2-methylpropyl)-1H-pyrazole-5-carboxamide]	38.2
CCc1c(-c2ccc(C#N)cc2)nn(C(C)CC)c1C(=O)NCC(=O)NC (single isomer, unassigned) [Example 109 Ent 1, 1-sec-Butyl-3-(4-cyanophenyl)-4-ethyl-N-[2-(methylamino)-2-oxoethyl]-1H-pyrazole-5-carboxamide]	99
CCc1c(-c2ccc(C#N)cc2)nn(C(C)CC)c1C(=O)NCC(=O)NC (single isomer, unassigned) [Example 109 Ent 2, 1-sec-Butyl-3-(4-cyanophenyl)-4-ethyl-N-[2-(methylamino)-2-oxoethyl]-1H-pyrazole-5-carboxamide]	190
CCC(=O)N1CCC(NC(=O)c2c(C3CC3)c(-c3ccc(C#N)cc3)nn2C(C)C)C1 (stereo in doubt) [Example 12, 3-(4-Cyanophenyl)-4-cyclopropyl-1-isopropyl-N-[(3S)-1-propionylpyrrolidin-3-yl]-1H-pyrazole-5-carboxamide]	17.2
CC(C)n1nc(-c2ccc(C#N)cc2)c(C2CC2)c1C(=O)NCC(C)(C)O [Example 1, 3-(4-Cyano-phenyl)-4-cyclopropyl-N-(2-hydroxy-2-methylpropyl)-1-isopropyl-1H-pyrazole-5-carboxamide]	19.8
CC(C)n1nc(-c2ccc(C#N)cc2)c(C2CC2)c1C(=O)NC[C@H](C)O [Example 2, 3-(4-Cyano-phenyl)-4-cyclopropyl-N-[(2S)-2-hydroxypropyl]-1-isopropyl-1H-pyrazole-5-carboxamide]	9.39
CC(C)n1nc(-c2ccc(C#N)cc2)c(C2CC2)c1C(=O)NC[C@@H](C)O [Example 3, 3-(4-Cyano-phenyl)-4-cyclopropyl-N-[(2R)-2-hydroxypropyl]-1-isopropyl-1H-pyrazole-5-carboxamide]	13.9
CC(C)NC(=O)c1c(C2CC2)c(-c2ccc(C#N)cc2)nn1C(C)C [Example 4, 3-(4-Cyano-phenyl)-4-cyclopropyl-N,1-diisopropyl-1H-pyrazole-5-carboxamide]	7.06
CC(C)n1nc(-c2ccc(C#N)cc2)c(C2CC2)c1C(=O)N[C@@H]1CCN(C(=O)OC(C)(C)C)C1 [Example 5, tert-Butyl (3R)-3-({[3-(4-cyanophenyl)-4-cyclopropyl-1-isopropyl-1H-pyrazol-5-yl]carbonyl}amino)-pyrrolidine-1-carboxylate]	7.92
CC(C)n1nc(-c2ccc(C#N)cc2)c(C2CC2)c1C(=O)NC1CN(C(=O)OC(C)(C)C)C1 [Example 7, tert-Butyl 3-({[3-(4-cyanophenyl)-4-cyclopropyl-1-isopropyl-1H-pyrazol-5-yl]carbonyl}amino)azetidine-1-carboxylate]	9.73
CC(C)n1nc(-c2ccc(C#N)cc2)c(C2CC2)c1C(=O)N[C@@H]1CCNC1 [Example 8, 3-(4-Cyanophenyl)-4-cyclopropyl-1-isopropyl-N-[(3R)-pyrrolidin-3-yl]-1H-pyrazole-5-carboxamide hydrochloride]	162
CC(C)n1nc(-c2ccc(C#N)cc2)c(C2CC2)c1C(=O)N[C@H]1CCNC1 [Example 9, 3-(4-Cyanophenyl)-4-cyclopropyl-1-isopropyl-N-[(3S)-pyrrolidin-3-yl]-1H-pyrazole-5-carboxamide hydrochloride]	836
CC(C)n1nc(-c2ccc(C#N)cc2)c(C2CC2)c1C(=O)NC1CNC1 [Example 10, N-Azetidin-3-yl-3-(4-cyanophenyl)-4-cyclopropyl-1-isopropyl-1H-pyrazole-5-carboxamide]	285
